Data as given in ChEMBL document CHEMBL1142584, “Insect antifeedants from Croton jatrophoides: structures of zumketol, zumsenin, and zumsenol” (2005).

Experiments:
Format in all cases: functional
[1] = test system: Pectinophora gossypiella; experiment: Antifeedant activity against Pectinophora gossypiella second-instar larvae assessed as 50 % protection after 48 hrs
[2] = test system: Pectinophora gossypiella; experiment: Antifeedant activity against Pectinophora gossypiella second-instar larvae assessed as 90 % protection after 48 hrs
[3] = test system: Spodoptera frugiperda; experiment: Antifeedant activity against Spodoptera frugiperda second-instar larvae assessed as 50 % protection after 48 hrs
[4] = test system: Spodoptera frugiperda; experiment: Antifeedant activity against Spodoptera frugiperda second-instar larvae assessed as 90 % protection after 48 hrs

Compound: CC(=O)O[C@H]1[C@H](OC(C)=O)[C@]2(C)C(=CC[C@H]2c2ccoc2)[C@]2(C)C(=O)C[C@H]3C(C)(C)O[C@H]4C[C@H](O)C(=O)[C@]43[C@@H]12 [ZUMKETOL]
- Activity [1]: 0.5 µg/mL
- Activity [2]: 2 µg/mL
- Activity [3]: 3 µg/mL
- Activity [4]: 16 µg/mL
